In one series the test system is Sphaerotheca fuliginea. The series is described as follows: In vivo test on Sphaerotheca fuliginea (cucurbits powdery mildew). The conditions noted are these: gherkin plants, spray, 500 ppm, grading 12 days after contamination. As to the method:
(§1) The active ingredients tested are prepared by homogenization in a mixture of acetone/tween/DMSO, then diluted with water to obtain the desired active material.
Gherkin plants (Vert petit de Paris variety) in starter cups, sown on a 50/50 peat soil-pozzolana substrate and grown at 20° C./23° C., are treated at the cotyledon Z10 stage by spraying with the aqueous suspension described above. Plants, used as controls, are treated with an aqueous solution not containing the active material.
After 24 hours, the plants are contaminated by spraying them with an aqueous suspension of Sphaerotheca fuliginea spores (100.000 spores per ml). The spores are collected from a contaminated plants. The contaminated gherkin plants are incubated at about 20° C./25° C. and at 60/70% relative humidity.
Grading (% of efficacy) is carried out 12 days after the contamination, in comparison with the control plants.
(§2) Under these conditions, good (at least 70%) or total protection is observed at a dose of 500 ppm with the following compounds: […]

Series [1] deals with Mycosphaerella graminicola. The series is described as follows: In vivo test on Mycosphaerella graminicola (wheat leaf spot). The conditions noted are these: wheat plants, spray, 500 ppm, grading 21 to 28 days after contamination. In a few lines: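 Scipion wheat at 1-leaf stage was sprayed with compound suspension (acetone/tween/DMSO diluted in water), then inoculated 24 h later with spores (500.000/ml). Plants were held 72 h at 18° C and 100% RH, then 21 to 28 days at 90% RH. Efficacy was graded as % versus untreated controls.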

The next series deals with Puccinia recondita. The series is described as follows: In vivo test on Puccinia recondita (brown rust). The conditions noted are these: wheat plants, spray, 500 ppm, grading 10 days after contamination. The method, boiled down: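 Wheat (Scipion) at the 1-leaf stage sprayed with compound suspension (acetone/tween/DMSO diluted in water), then inoculated 24 h later with Puccinia recondita spores at 100.000 spores per ml. Plants were held 24 h at 20 °C/100% RH, then 10 days at 20 °C/70% RH; protection graded 10 days post-inoculation versus untreated controls.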

A further series has as its system Botrytis cinerea. The series is described as follows: In vivo test on Botrytis cinerea (grey mould). The settings on record: gherkin plants, spray, 500 ppm, grading 4/5 days after contamination. The procedure: The active ingredients tested are prepared by homogenization in a mixture of acetone/Tween/DMSO, then diluted with water to obtain the desired active material
Gherkin plants (Vert petit de Paris variety), sown on a 50/50 peat soil-pozzolana substrate in starter cups and grown at 18-20° C., are treated at the cotyledon Z11 stage by spraying with the active ingredient prepared as described above.
Plants, used as controls, are treated with an aqueous solution not containing the active material. After 24 hours, the plants are contaminated by spraying them with an aqueous suspension of cryopreserved Botrytis cinerea spores (50.000 spores per ml) on upper surface of the leaves. The spores are suspended in a nutrient solution composed of: • 10 g/L of PDB; • 50 g/L of D-fructose; • 2 g/L of NH4NO3; • 1 g/L of KH2PO4.
The contaminated cucumber plants are settled for 4/5 days in a climatic room at 17° C. (day/night) and at 80% relative humidity.
Grading is carried out 4/5 days after the contamination, in comparison with the control plants.
as §2

The conditions of series [2]: pH 2.7.
A further series deals with Uromyces appendiculatus. The series is described as follows: In vivo test on Uromyces appendiculatus (brown rust of bean). The conditions noted are these: Saxa variety plants, spray, 500 ppm, grading 10 days after contamination.
The test system of another series is Phytophthora infestans. In kind it is in vivo. The settings on record: tomato plants, spray, 500 ppm, grading 5 days after contamination.
A further series deals with Alternaria brassicae. The series is described as follows: In vivo test on Alternaria brassicae (leaf spot of crucifers). The settings on record: radish plants, spray, 500 ppm, grading 6 to 7 days after contamination. As to the method: as §1
Radish plants (Pernot variety), sown on a 50/50 peat soil-pozzolana substrate in starter cups and grown at 18-20° C., are treated at the cotyledon stage by spraying with the active ingredient prepared as described above.
Plants, used as controls, are treated with the mixture of acetone/tween/water not containing the active material.
After 24 hours, the plants are contaminated by spraying them with an aqueous suspension of Alternaria brassicae spores (40,000 spores per cm^3). The spores are collected from a 12 to 13 days-old culture.
The contaminated radish plants are incubated for 6-7 days at about 18° C., under a humid atmosphere.
Grading is carried out 6 to 7 days after the contamination, in comparison with the control plants.
Under these conditions, good protection (at least 70%) is observed at a dose of 500 ppm with the following compounds: […]

The test system of another series is Pyrenophora teres. The series is described as follows: In vivo test on Pyrenophora teres (barley net blotch). The conditions noted are these: barley plants, spray, 500 ppm, grading 12 days after contamination. The procedure: The active ingredients tested are prepared by homogenization in a mixture of acetone/Tween/DMSO, then diluted with water to obtain the desired active material concentration.
Barley plants (Plaisant variety), sown on a 50/50 peat soil-pozzolana substrate in starter cups and grown at 22° C. (12 h)/20° C. (12 h), are treated at the 1-leaf stage (10 cm tall) by spraying with the active ingredient prepared as described above.
Plants, used as controls, are treated with an aqueous solution not containing the active material.
After 24 hours, the plants are contaminated by spraying them with an aqueous suspension of Pyrenophora teres spores (12.000 spores per ml). The spores are collected from a 12-day-old culture.
The contaminated barley plants are incubated for 24 hours at about 20° C. and at 100% relative humidity, and then for 12 days at 80% relative humidity.
Grading is carried out 12 days after the contamination, in comparison with the control plants.
Under these conditions, good (at least 70%) is observed at a dose of 500 ppm with the following compounds: […]

The term LogP denotes a log measure of how a compound divides between an organic and an aqueous phase. A lower LogP goes with lower lipophilicity.

Each structure is given as a SMILES string. Marks after values point to notes of the source that are not given here.

In the case of `Cn1c(/C(=N\OCc2cccc(N)n2)c2cccc(F)c2)noc1=O` [Example 83], the Eff. % with Sphaerotheca fuliginea turned out to be 85%; in [1], 93%; in the series on Puccinia recondita, 89%; in the series with Botrytis cinerea it was 73%; in the series on Uromyces appendiculatus, 75%; with Phytophthora infestans it was 100%. Moreover, the LogP in [2] was 1.34 [a].

For the compound `CCn1c(/C(=N\OCc2cccc(N)n2)c2ccccc2)noc1=O` [Example 209], the Eff. % was 75% in the series with Sphaerotheca fuliginea, 88% with Puccinia recondita, 70% with Alternaria brassicae and 84% in the series with Phytophthora infestans. Moreover, in series [2], the LogP was 1.42 [a].

Turning to `COc1cccc(C(=O)Nc2nc(CO/N=C(/c3ccccc3)c3noc(=O)n3C)cs2)c1` [Example 212], the Eff. % in the series with Sphaerotheca fuliginea turned out to be 100%; in series [1], 100%; in the series with Puccinia recondita, 89%; in the series with Alternaria brassicae, 70%; in the series on Pyrenophora teres, 97%; in the series on Uromyces appendiculatus it was 100%. In the series on Phytophthora infestans, this compound showed an Eff. % of 73%. The LogP in series [2] is 3.58 [a].

Values taken from patent US9090600B2, “Fungicidal 4-substituted-3-{phenyl[(heterocyclylmethoxy)imino]methyl}-1,2,4-oxadizol-5(4H)-one derivatives” (BAYER INTELLECTUAL PROPERTY GMBH, priority 2011, dated 2015).
